A word on the GI50: it is the concentration giving 50% growth inhibition.

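Results reflect a 48-hour exposure of cells in 96-well plates to compound at five concentrations. GI50 = concentration required for 50% inhibition of growth.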 The source made the active and inactive calls. Rule as the data show it: active = GI50 up to about 1.1 µM and inactive = higher. Some results are limits rather than exact numbers.

The values below come from ChEMBL document CHEMBL1201862, “PubChem BioAssay data set” (2004).

Common to all, as to assay: DTP human tumour cell line panel, 48 h
Assay [1] concerns MOLT-4.
Assay [2] deals with SK-MEL-2.
Assay [3] relates to SF-539.
Assay [4] has as its system RPMI-8226.
The subject of assay [5] is SN12C.
Assay [6] concerns SNB-19.
Assay [7] has as its system 786-0.
Assay [8] has as its system NCI-H522.
The subject of assay [9] is NCI-H23.
Assay [10] deals with COLO 205.
Assay [11] relates to SF-268.
Assay [12] deals with K562.
The test system of assay [13] is OVCAR-4.
In assay [14] the test system is HT-29.
The subject of assay [15] is HCC 2998.
In assay [16] the test system is UACC-62.
Assay [17] relates to EKVX.

As for `O=C(O)CCC(NC(=O)c1ccccc1)C(=O)O` (stereo not drawn), the GI50 in assay [1], in assay [2], in assay [3], in [4], in [5] and in assay [6] was > 100 µM (inactive) each time. The GI50 was > 100 µM (inactive) in [7]; > 100 µM (inactive) in [8]; > 100 µM (inactive) in assay [9]; 52.1 µM (inactive) in [10]; > 100 µM (inactive) in assay [11]; > 100 µM (inactive) in [12]. Moreover, the GI50 in [13], in [14], in assay [15], in assay [16] and in assay [17] was > 100 µM (inactive) each time.
As for `COc1ccccc1/C=C1\CCC(CNc2ccc(Cl)cc2)C1=O` (stereo not drawn), the GI50 in assay [1] is 2.86 µM (inactive); in assay [2], 13.2 µM (inactive); in assay [3], 5.82 µM (inactive); in assay [4] it was 1.34 µM (inactive); in [5], 13.7 µM (inactive); in [6], 11.8 µM (inactive). Further, the GI50 in assay [7] was 10.5 µM (inactive); in [8], 1.57 µM (inactive); in [9], 5.14 µM (inactive); in assay [10], 2.39 µM (inactive); in assay [11], 4.86 µM (inactive); in [12] it was 0.215 µM (active). In addition, the GI50 in [13] was 14.7 µM (inactive); in assay [14], 2.2 µM (inactive); in assay [15] it was 6.35 µM (inactive); in assay [16], 0.36 µM (active); in assay [17], 5.15 µM (inactive).
On to `O=C1CCC2(c3ccccc3)Nc3ncccc3N12` (stereo not drawn), for which the GI50 in assay [1], in assay [2], in [3], in assay [4], in [5] and in [7] was > 100 µM (inactive) in each case. Besides, the GI50 in assay [8], in assay [9], in assay [10], in [11], in assay [12] and in [13] was > 100 µM (inactive) in each case. Also, the GI50 in [14], in assay [15], in assay [16] and in [17] was > 100 µM (inactive) in each case.
As for `CCCC1C(=O)C(CC)Cc2c(OC)ccc(OC)c21` (stereo not drawn), the GI50 in assay [1], in assay [2], in assay [3], in [4], in [5] and in [6] was > 100 µM (inactive) throughout. In addition, the GI50 in [7], in assay [8], in [10], in assay [11], in assay [12] and in assay [13] was > 100 µM (inactive) throughout. In addition, the GI50 in assay [14], in assay [15], in assay [16] and in [17] was > 100 µM (inactive) in each case.
As for `COC(=O)C1C2CC3C(OC(=O)C31)C2OC(=O)[C@](OC)(c1ccccc1)C(F)(F)F` (stereo partly drawn), the GI50 in [1], in [2], in [3], in [4], in assay [5] and in assay [6] was > 100 µM (inactive) throughout. Moreover, the GI50 in assay [7], in [8], in [9], in [10], in assay [11] and in [12] was > 100 µM (inactive) each time. Besides, the GI50 in assay [13], in [14], in assay [15] and in assay [17] was > 100 µM (inactive) throughout.
For the compound `O=C1c2ccccc2C(=O)N1CCn1ccc(NC(c2ccccc2)(c2ccccc2)c2ccccc2)nc1=O`, the GI50 in [1] was 17.5 µM (inactive); in [2], 20.5 µM (inactive); in assay [3] it was 16 µM (inactive); in assay [4] it was 19.8 µM (inactive); in assay [5], 26.2 µM (inactive); in assay [6], 25.2 µM (inactive). Besides, the GI50 in assay [7] was 32 µM (inactive); in assay [8], 20.2 µM (inactive); in assay [9] it was 24 µM (inactive); in assay [10], 17.6 µM (inactive); in [11], 19.2 µM (inactive); in [12] it was 20.3 µM (inactive). The GI50 is 25.5 µM (inactive) in assay [13]; 16.8 µM (inactive) in [14]; 21.4 µM (inactive) in [15]; 12.6 µM (inactive) in assay [16]; 49.1 µM (inactive) in assay [17].
On to `CCN(CC)CCCN1CCc2c([nH]c3ccccc23)C1c1cccnc1` (stereo not drawn), for which the GI50 in assay [1], in [2], in assay [3], in assay [4], in assay [5] and in [6] was > 100 µM (inactive) in each case. Besides, the GI50 was > 100 µM (inactive) in assay [7]; > 100 µM (inactive) in [8]; > 100 µM (inactive) in [9]; > 100 µM (inactive) in assay [10]; > 100 µM (inactive) in assay [12]; 96.8 µM (inactive) in assay [13]. Besides, the GI50 in [14], in [15], in assay [16] and in assay [17] was > 100 µM (inactive) throughout.
`COc1cc([C@@H]2c3cc4c(cc3[C@@H](NCc3cccc(F)c3)C3COC(=O)[C@@H]32)OCO4)cc(OC)c1O` (stereo partly drawn): the GI50 in [1] is 0.364 µM (active); in assay [2], 12.9 µM (inactive); in [3], 2.52 µM (inactive); in [4] it was 2.29 µM (inactive); in assay [5], 2.14 µM (inactive); in assay [6] it was 2.81 µM (inactive). For the same compound, the GI50 is 2.29 µM (inactive) in [7]; 6.93 µM (inactive) in assay [8]; 1.95 µM (inactive) in assay [9]; 12.9 µM (inactive) in [10]; 5.92 µM (inactive) in [11]; 6.49 µM (inactive) in assay [12]. Moreover, the GI50 in assay [13] was 30.6 µM (inactive); in assay [14], 8.61 µM (inactive); in [15], 9.77 µM (inactive); in [16], 2.47 µM (inactive); in [17] it was 12.4 µM (inactive).
On to `O=c1c2c(-c3ccccc3)c3ccccc3nc2cnn1-c1ccccc1`, for which the GI50 is 96.2 µM (inactive) in [1]; > 100 µM (inactive) in assay [2]; > 100 µM (inactive) in assay [3]; > 100 µM (inactive) in assay [4]; > 100 µM (inactive) in assay [5]; > 100 µM (inactive) in assay [6]. Also, the GI50 is > 100 µM (inactive) in assay [7]; 26.7 µM (inactive) in assay [8]; > 100 µM (inactive) in assay [9]; 67 µM (inactive) in assay [10]; > 100 µM (inactive) in assay [11]; 42.3 µM (inactive) in assay [12]. Further, the GI50 is > 100 µM (inactive) in assay [13]; 70.3 µM (inactive) in [14]; > 100 µM (inactive) in assay [15]; > 100 µM (inactive) in [16]; > 100 µM (inactive) in [17].
As to `COc1cc(C[S+]2CCCC2)c(SC)cc1C[S+]1CCCC1`, the GI50 in [1], in assay [2], in assay [3], in assay [4], in assay [5] and in assay [7] was > 100 µM (inactive) in each case. The GI50 in [8], in assay [9], in assay [10], in assay [11], in [12] and in assay [13] was > 100 µM (inactive) each time. The GI50 in assay [14], in assay [15], in [16] and in assay [17] was > 100 µM (inactive) throughout.
Take `CC(=O)O[C@H]1[C@H](O[C@H]2CC[C@]34C[C@]35CC[C@]3(C)[C@@H]([C@@]6(C)CC[C@@H](C(C)(C)O)O6)[C@@H](O)C[C@@]3(C)[C@@H]5C[C@H](O[C@@H]3O[C@H](CO)[C@@H](O)[C@H](O)[C@H]3O)[C@H]4C2(C)C)OC[C@@H](O)[C@@H]1O`: the GI50 was > 100 µM (inactive) in assay [1]; > 100 µM (inactive) in assay [2]; 40.4 µM (inactive) in assay [3]; 52.6 µM (inactive) in assay [4]; > 100 µM (inactive) in assay [5]; > 100 µM (inactive) in assay [6]. Besides, the GI50 in assay [7] is 42.6 µM (inactive); in assay [8], > 100 µM (inactive); in assay [9], > 100 µM (inactive); in [10] it was 46.8 µM (inactive); in assay [11], > 100 µM (inactive); in [12] it was 45.3 µM (inactive). The GI50 in assay [13] was > 100 µM (inactive); in [14] it was 85.5 µM (inactive); in assay [15], > 100 µM (inactive); in assay [16], > 100 µM (inactive); in assay [17], > 100 µM (inactive).
For the compound `CC(=O)Oc1ccccc1` [ACETIC ACID PHENYL ESTER], the GI50 in [1], in assay [2], in assay [3], in assay [4], in assay [5] and in [6] was > 100 µM (inactive) each time. In addition, the GI50 in assay [7], in assay [8], in [9], in assay [11], in assay [12] and in assay [13] was > 100 µM (inactive) throughout. Besides, the GI50 in assay [14] is > 100 µM (inactive); in [15], > 10 µM (inactive); in assay [16], > 100 µM (inactive); in [17], > 100 µM (inactive).
